Measured values: patent publication US20220395553A1, “CXCR4 ANTAGONIST PEPTIDES” (COHBAR, INC., priority 2019, published 2022)
Square brackets hold non-standard residues; d marks the D form. Peptide text beside a SMILES is read from it.

Experiments:
[1] = test system: A172 human brain glioblastoma cell line; assay: Caspase 3/7 activity (Caspase-Glo 3/7) in cultured cells; format: cell-based; conditions: peptide 10 μM, 18-20 hours, relative to 0.1% DMSO control
Protocol: The effect of the peptides on cell death/survival can be assessed using a caspase-3/7 assay in cultured cells. Peptides were dissolved at 10 mM in DMSO as stock solutions for use at a final concentration of 10 μM. […] Caspase-Glo 3/7 Assay Reagent was purchased from Promega (Madison, Wis.). A172 human brain glioblastoma cell line was purchased from American Type Culture Collection (Manassas, Va.). A172 cells were grown in DMEM supplemented with 10% FBS with 100 IU/ml penicillin and 100 μg/ml streptomycin. Cultures were maintained at 37° C. in a humidified atmosphere of 5% CO2/95% air. A172 cells were seeded at 8,000 cells per well on 96-well plates. […] Caspase 3/7 activity was determined using a Caspase-Glo 3/7 Assay kit (Promega) according to the manufacturer's instructions. Luminescence for each sample well on the plate was measured using a Cytation 3 plate reader (BioTek, Winooski, Vt.). Activity was calculated relative to 0.1% DMSO control.

[2] = test system: SH-SY5Y Neuroblastoma Cells; assay: ATP levels in cells exposed to staurosporine; format: cell-based, human; conditions: peptide 10 μM plus staurosporine, 18-20 hours; <100% cytoprotective, >100% synergistic
Protocol: Peptides were initially prepared as 10 mM stock in DMSO and tested at a final concentration of 10 μM (0.1% DMSO).
[…] CellTiter-Glo® Assay kit was purchased from Promega. SH-SY5Y human neuroblastoma cell line was purchased from American Type Culture Collection (Manassas, Va.) and licensed from Memorial Sloan-Kettering Cancer Center (New York, N.Y.). SH-SY5Y cells were grown in DMEM/F12 medium supplemented with 10% FBS with 100 IU/ml penicillin and 100 μg/ml streptomycin. Cultures were maintained at 37° C. in a humidified atmosphere of 5% CO2/95% air. SH-SY5Y cells were seeded at 30,000 cells per well on 96-well plates. […] ATP levels were determined using a CellTiter-Glo Assay kit (Promega) according to the manufacturer's instructions. Luminescence for each sample well on the plate was measured using a Cytation 3 plate reader (BioTek, Winooski, Vt.). […] A value less than 100% is indicative of a cytoprotective effect, while a value greater than 100% is indicative of a synergistic effect on viability.

[3] = test system: SH-SY5Y Neuroblastoma Cells; assay: ATP levels (CellTiter-Glo); format: cell-based, human; conditions: peptide 10 μM, 18-20 hours, relative to 0.1% DMSO treated control
Protocol: The effect of the peptides on cellular metabolism can be assessed using an assay of ATP levels in cultured cells such as human neuroblastoma cells. Peptides were initially prepared as 10 mM stock in DMSO and used at a final concentration of 10 μM (0.1% DMSO). […] CellTiter-Glo® Assay kit was purchased from Promega. SH-SY5Y human bone marrow neuroblastoma cell line was purchased from American Type Culture Collection (Manassas, Va.) and licensed from Memorial Sloan-Kettering Cancer Center (New York, N.Y.). SH-SY5Y cells were grown in DMEM/F12 medium supplemented with 10% FBS with 100 IU/ml penicillin and 100 μg/ml streptomycin. Cultures were maintained at 37° C. in a humidified atmosphere of 5% CO2/95% air. SH-SY5Y cells were seeded at 30,000 cells per well on 96-well plates. […] ATP levels were determined using a CellTiter-Glo Assay kit (Promega) according to the manufacturer's instructions. Luminescence for each sample well on the plate was measured using a Cytation 3 plate reader (BioTek, Winooski, Vt.). Activity was calculated relative to 0.1% DMSO treated control. The relative standard deviation of the result for the 0.1% DMSO treated control was <5%.

Jurkat cells = assay: CXCL12 mediated cell migration, Jurkat cells; format: cell-based, human; conditions: 1.1 μM test article, 100 ng/ml CXCL12, 1 hour
Procedure, shortened: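 Jurkat cells in serum-free RPMI with 0.5% BSA, 250,000 per upper chamber of a 5 μm Transwell, with peptides at 1.1 μM final. Migration toward CXCL12 ran 1 h at 37 °C in 5% CO2. Cells reaching the lower chamber quantified by ATP luminescence (CellTiter-Glo 2.0).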

[4] = Cell viability, PrestoBlue assay; format: cell-based; conditions: human
Protocol: The effect of the peptides on cell viability can be assessed in cultured cells using suitable assay of viability such as the PrestoBlue® assay (Thermo Fisher Scientific, Waltham, Mass.). Peptides were initially prepared as 10 mM stock in DMSO and tested at a final concentration of 10 μM (0.1% DMSO). […] PrestoBlue Assay Reagent was purchased from Thermo Fisher Scientific. A172 human brain glioblastoma cell line was purchased from American Type Culture Collection (Manassas, Va.). A172 cells were grown in DMEM supplemented with 10% FBS with 100 IU/ml penicillin and 100 μg/ml streptomycin. Cultures were maintained at 37° C. in a humidified atmosphere of 5% CO2/95% air. A172 cells were seeded at 8,000 cells per well on 96-well plates. […] Cell viability was determined using a PrestoBlue Assay reagent […] according to the manufacturer's instructions. Absorption for each sample well on the plate was measured using a Cytation 3 plate reader at 560 nm and 590 nm (BioTek, Winooski, Vt.). Activity was calculated relative to 0.1% DMSO untreated control. Treatment with 0.1% DMSO alone was used as the cell viability activity control. The relative standard deviation of the DMSO control was <5%.

| SMILES | Caspase 3/7 Activity, Percent of Control Activity [1] | Percent of ATP Reduction Induced by Control [2] | ATP Levels, % Control [3] | Percent Inhibition of CXCL12 Mediated Migration (1.1 μM Test Article) (Jurkat cells) | viability at 10 μM [4] |
| --- | --- | --- | --- | --- | --- |
| CSCC[C@H](N)C(=O)N[C@@H](CC(C)C)C(=O)N[C@@H](CCCNC(=N)N)C(=O)N[C@@H](CCCNC(=N)N)C(=O)N[C@@H](Cc1ccc(O)cc1)C(=O)N[C@@H](Cc1c[nH]cn1)C(=O)N[C@@H](Cc1c[nH]cn1)C(=O)N[C@@H](CO)C(=O)N[C@H](C(=O)N[C@@H](CCCNC(=N)N)C(=O)N[C@@H](CO)C(=O)N[C@@H](CO)C(=O)N[C@@H](CC(C)C)C(=O)N[C@@H](CCCNC(=N)N)C(=O)N1CCC[C@H]1C(=O)N[C@@H](Cc1ccc(O)cc1)C(=O)N[C@H](C(=O)N[C@@H](CCCCN)C(=O)O)[C@@H](C)O)C(C)C [compound 2] (H-MLRRYHHSVRSSLRPYTK-OH; N-terminus and C-terminus assumed) | 96.7% | 84.5% | 100.1% | 4% | 96.4% |
| CC(C)C[C@H](NC(=O)[C@H](CO)NC(=O)[C@H](CO)NC(=O)[C@H](CCCNC(=N)N)NC(=O)[C@@H](C)NC(=O)[C@H](CO)NC(=O)[C@H](Cc1c[nH]cn1)NC(=O)[C@H](Cc1c[nH]cn1)NC(=O)[C@H](Cc1ccc(O)cc1)NC(=O)[C@H](CCCNC(=N)N)NC(=O)[C@H](CCC(=O)O)NC(=O)[C@@H](N)CC(C)C)C(=O)N[C@@H](CCCNC(=N)N)C(=O)N1CCC[C@H]1C(=O)N[C@@H](Cc1ccc(O)cc1)C(=O)N[C@H](C(=O)O)[C@@H](C)O [compound 5] (H-LERYHHS[dA]RSSLRPYT-OH; N-terminus and C-terminus assumed) | 104.7% | 80.0% | 97.0% | 46% | 98.8% |
| CC(C)C[C@H](NC(=O)[C@H](CO)NC(=O)[C@H](CO)NC(=O)[C@H](CCCNC(=N)N)NC(=O)[C@@H](NC(=O)[C@H](CO)NC(=O)[C@H](Cc1c[nH]cn1)NC(=O)[C@H](Cc1c[nH]cn1)NC(=O)[C@H](Cc1ccc(O)cc1)NC(=O)[C@H](CCCNC(=N)N)NC(=O)[C@H](CCCNC(=N)N)NC(=O)[C@@H](N)CC(C)C)C(C)C)C(=O)N[C@@H](CCCNC(=N)N)C(=O)N1CCC[C@H]1C(=O)N[C@@H](Cc1ccc(O)cc1)C(=O)N[C@H](C(=O)N[C@@H](CCCCN)C(=O)O)[C@@H](C)O [compound 3] (H-LRRYHHSVRSSLRPYTK-OH; N-terminus and C-terminus assumed) | 121.4% | 84.9% | 102.5% | 66% | 97.3% |
| CC(C)C[C@H](NC(=O)[C@H](CO)NC(=O)[C@H](CO)NC(=O)[C@H](CCCNC(=N)N)NC(=O)[C@@H](NC(=O)[C@H](CO)NC(=O)[C@H](Cc1c[nH]cn1)NC(=O)[C@H](Cc1c[nH]cn1)NC(=O)[C@H](Cc1ccc(O)cc1)NC(=O)[C@H](CCCNC(=N)N)NC(=O)[C@H](CCC(=O)O)NC(=O)[C@@H](N)CC(C)C)C(C)C)C(=O)N[C@@H](CCCNC(=N)N)C(=O)N1CCC[C@H]1C(=O)N[C@@H](Cc1ccc(O)cc1)C(=O)N[C@H](C(=O)N[C@@H](CCCCN)C(=O)O)[C@@H](C)O [compound 4] (H-LERYHHSVRSSLRPYTK-OH; N-terminus and C-terminus assumed) | 107.7% | 77.1% | 98.5% | 77% | 96% |
